Measured values taken from patent publication US9486440B2, “Uses of indole-ketones or indolidones as neuro-protective drugs” (UNIVERSITY OF MACAU, priority 2011, dated 2016).

How the values were obtained:
[1] = test system: dopaminergic neurons in zebrafish larval; assay: MPTP zebrafish, TH-positive neuron count in paraffin sections; type: in vivo
Procedure: Healthy zebrafish embryos were picked and dechorionated manually at 1 day post fertilization (dpf) then distributed into a 12-well plate with 20 fish embryos or a 6-well microplate with 30 fish embryos in each well. In pilot experiments, several doses of MPTP were added to embryo medium (final concentration from 50 to 800 μM) and 1 dpf fish embryo were treated for 48 hours, The optimal dose used (200 μM) induced a significant decrease in brain diencephalic dopaminergic neurons without any detectable systematic toxicity (data not shown). Thus subsequent studies were performed with 200 μM MPTP for whole-mount immunostaining and gene expression experiments.
After drug treatment, fixation of zebrafish larval was performed as the procedure in whole-mount immunostaining. The fixed specimens were then mounted on 1% agarose blocks in a common linear plane to ensure that the microtome blade passes through each specimen simultaneously. The specimen-containing agarose was converted into a sectionable paraffin wax block and conducted processes as described by Sabaliauskas et al., 2006. […] The results were analyzed by counting the numbers of TH-positive cells at ×20 magnifications on a stereomicroscope (BX51, Olympus Corp. Japan). TH-positive cells in 3 matched sections of each zebrafish were counted and averaged. […]

ERK and Akt pathways = assay: Western blot of phospho-Akt and phospho-ERK after MPP+; type: cell-based; conditions: data not shown
[2] = phase I, 145 mg/m^2; cited from earlier work
[3] = test system: retinal photoreceptors or ganglion cells; conditions: 3 mg of SU4312 every 5 days for 12 weeks; cited from earlier work

Row | SMILES | MPTP-induced loss of dopaminergic neurons (TH-positive neuron count) ([1]; 200 μM MPTP, 1 μM SU5416, 2 days) | number of dopaminergic neurons, drug alone ([1]; without MPTP) | activities of phospho-Akt and phospho-ERK (ERK and Akt pathways) | tolerability in patients with advanced malignancies [2] | damage to retinal photoreceptors or ganglion cells [3]
1 | Cc1cc(C)c(/C=C2\C(=O)Nc3ccccc32)[nH]1 [SU5416, (3Z)-3-[(3,5-dimethyl-1H-pyrrol-2-yl)methylidene]-1,3-dihydro-2H-indol-2-one] | obviously prevented the loss of dopaminergic neurons | did not notably alter the number of dopaminergic neurons | could neither inhibit the activation of pro-apoptotic ERK pathway, nor reverse the decrease of pro-survival Akt pathway | well tolerated | 
2 | CN(C)c1ccc(C=C2C(=O)Nc3ccccc32)cc1 [SU4312, 3-[4-(dimethylamino)benzylidenyl]indolin-2-one] |  |  |  |  | did not damage retinal photoreceptors or ganglion cells
